pIC50: −log10 of the molar value.

This assay addresses human recombinant H-PGDS (Homo sapiens, UniProt O60760). The assay is described as follows: Fluorescence intensity h-PGDS TBA enzyme assay. Type of assay: biochemical. The note with it: Examples up to 622 (and 3a, 3b).

Sequence of human recombinant H-PGDS (O60760 whole entry): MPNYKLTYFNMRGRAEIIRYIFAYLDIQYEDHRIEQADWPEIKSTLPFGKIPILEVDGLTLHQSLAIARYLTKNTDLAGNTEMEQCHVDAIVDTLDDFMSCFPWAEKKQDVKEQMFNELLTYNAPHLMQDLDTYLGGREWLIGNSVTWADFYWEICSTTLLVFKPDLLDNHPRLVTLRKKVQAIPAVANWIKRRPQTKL

On to `O=C(NC1CCN(c2ncnc3c2ncn3C2CCCCO2)CC1)c1ccc(-c2cccc(F)c2)nc1` (centres unmarked) [Example 147, 6-(3-Fluorophenyl)-N-{1-[9-(tetrahydro-2H-pyran-2-yl)-9H-purin-6-yl]piperidin-4-yl}nicotinamide], for which the pIC50 was 9.13.

Consider `NC(=O)c1ccc(C(F)(F)F)nc1N1CCC(NC(=O)c2ccc(-c3cccc(F)c3)nc2)CC1` [Example 148, 2-[4-({[6-(3-Fluorophenyl)pyridin-3-yl]carbonyl}amino)piperidin-1-yl]-6-(trifluoromethyl)nicotinamide], for which the negative logarithm of the IC50 (pIC50) is 8.76.

As to `O=C(NC1CCN(c2ccc(C(=O)c3ccccn3)cn2)CC1)c1ccc(-c2cccc(F)c2)nc1` [Example 149, 6-(3-Fluorophenyl)-N-{1-[5-(pyridin-2-ylcarbonyl)pyridin-2-yl]piperidin-4-yl}nicotinamide], the pIC50 was 8.74.

Take `COC(=O)c1cc(C)nc(N2CCC(NC(=O)c3ccc(-c4cccc(F)c4)nc3)CC2)n1` [Example 150, Methyl 2-[4-({[6-(3-fluorophenyl)pyridin-3-yl]carbonyl}amino)piperidin-1-yl]-6-methylpyrimidine-4-carboxylate]: the negative-log IC50 (pIC50) is 8.74.

As to `Nc1cc(N2CCC(NC(=O)c3ccc(-c4cccc(F)c4)nc3)CC2)ncn1` [Example 151, N-[1-(6-Aminopyrmidin-4-yl)piperidin-4-yl]-6-(3-fluorophenyl)nicotinamide], the pIC50 was 9.28.

With `O=C(NC1CCN(c2ncccc2C(=O)NCc2ccccc2)CC1)c1ccc(-c2cccc(F)c2)nc1` [Example 152, N-Benzyl-2-[4-({[6-(3-fluorophenyl)pyridin-3-yl]carbonyl}amino)piperidin-1-yl]nicotinamide], the negative-log IC50 (pIC50) was 8.47.

In the case of `O=C(NC1CCN(c2nc3ccccc3s2)CC1)c1ccc(-c2cccc(F)c2)nc1` [Example 153, N-[1-(1,3-Benzothiazol-2-yl)piperidin-4-yl]-6-(3-fluorophenyl)nicotinamide], the negative-log IC50 (pIC50) is 8.72.

On to `CCc1cn2nc(N3CCC(NC(=O)c4ccc(-c5cccc(F)c5)nc4)CC3)ccc2n1` [Example 154, N-[1-(2-Ethylimidazo[1,2-b]pyridazin-6-yl)piperidin-4-yl]-6-(3-fluorophenyl)nicotinamide], for which the negative logarithm of the IC50 (pIC50) was 9.02.

For `CC(C)c1nccnc1N1CCC(NC(=O)c2ccc(-c3cccc(F)c3)nc2)CC1` [Example 155, 6-(3-Fluorophenyl)-N-[1-(3-isopropylpyrazin-2-yl)piperidin-4-yl]nicotinamide], the negative logarithm of the IC50 (pIC50) was 8.64.

For the compound `CC[C@@H](C)c1nccnc1N1CCC(NC(=O)c2ccc(-c3cccc(F)c3)nc2)CC1` [Example 156, 6-(3-Fluorophenyl)-N-(1-{3-[(1R)-1-methylpropyl]pyrazin-2-yl}piperidin-4-yl)nicotinamide], the negative-log IC50 (pIC50) was 8.50.

Take `CC(C)NC(=O)c1ccc(N2CCC(NC(=O)c3ccc(-c4cccc(F)c4)nc3)CC2)nn1` [Example 157, 6-[4-({[6-(3-Fluorophenyl)pyridin-3-yl]carbonyl}amino)piperidin-1-yl]-N-isopropylpyridazine-3-carboxamide]: the pIC50 was 9.17.

As to `O=C(NC1CCN(c2nc3ccccc3o2)CC1)c1ccc(-c2cccc(F)c2)nc1` [Example 158, N-[1-(1,3-Benzoxazol-2-yl)piperidin-4-yl]-6-(3-fluorophenyl)nicotinamide], the pIC50 was 8.80.

`CC(C)CN(C)C(=O)c1ccc(N2CCC(NC(=O)c3ccc(-c4cccc(F)c4)nc3)CC2)nn1` [Example 159, 6-[4-({[6-(3-Fluorophenyl)pyridin-3-yl]carbonyl}amino)piperidin-1-yl]-N-isobutyl-N-methylpyridazine-3-carboxamide]: the pIC50 is 8.80.

Take `Cc1cc(NC(=O)c2ccc(N3CCC(NC(=O)c4ccc(-c5cccc(F)c5)nc4)CC3)nn2)n(C)n1` [Example 160, N-(1,3-Dimethyl-1H-pyrazol-5-yl)-6-[4-({[6-(3-fluorophenyl)pyridin-3-yl]carbonyl}amino)piperidin-1-yl]pyridazine-3-carboxamide]: the pIC50 is 9.32.

For the compound `Cn1c(-c2cccc(C#N)c2)nc2c(N3CCC(NC(=O)c4ccc(-c5cccc(F)c5)nc4)CC3)ncnc21` [Example 161, N-{1-[8-(3-Cyanophenyl)-9-methyl-9H-purin-6-yl]piperidin-4-yl}-6-(3-fluorophenyl)nicotinamide], the pIC50 was 8.41.

Turning to `Cc1cnc(Cn2cnc3c(N4CCC(NC(=O)c5ccc(-c6cccc(F)c6)nc5)CC4)ncnc32)cn1` [Example 162, 6-(3-Fluorophenyl)-N-(1-{9-[(5-methylpyrazin-2-yl)methyl]-9H-purin-6-yl}piperidin-4-yl)nicotinamide], the negative logarithm of the IC50 (pIC50) was 8.96.

Regarding `O=C(NC1CCN(c2ccc(C(=O)NCC3CCCCC3)nn2)CC1)c1ccc(-c2cccc(F)c2)nc1` [Example 163, N-(Cyclohexylmethyl)-6-[4-({[6-(3-fluorophenyl)pyridin-3-yl]carbonyl}amino)piperidin-1-yl]pyridazine-3-carboxamide], the negative logarithm of the IC50 (pIC50) was 7.84.

On to `O=C(NC1CCN(c2ccc(C(=O)NCCN3CCNC3=O)nn2)CC1)c1ccc(-c2cccc(F)c2)nc1` [Example 164, 6-[4-({[6-(3-Fluorophenyl)pyridin-3-yl]carbonyl}amino)piperidin-1-yl]-N-[2-(2-oxoimidazolidin-1-yl)ethyl]pyridazine-3-carboxamide], for which the pIC50 is 9.37.

Take `O=C(NC1CCN(c2ncccc2C(=O)N2CCCC2)CC1)c1ccc(-c2cccc(F)c2)nc1` [Example 165, 6-(3-Fluorophenyl)-N-{1-[3-(pyrrolidin-1-ylcarbonyl)pyridin-2-yl]piperidin-4-yl}nicotinamide]: the pIC50 is 8.94.

Consider `O=C(NC1CCN(c2ncc3ccccc3n2)CC1)c1ccc(-c2cccc(F)c2)nc1` [Example 166, 6-(3-Fluorophenyl)-N-(1-quinazolin-2-ylpiperidin-4-yl)nicotinamide], for which the pIC50 was 8.46.

For `COC(=O)c1cnc(N2CCC(NC(=O)c3ccc(-c4cccc(F)c4)nc3)CC2)cn1` [Example 167, Methyl 5-[4-({[6-(3-fluorophenyl)pyridin-3-yl]carbonyl}amino)piperidin-1-yl]pyrazine-2-carboxylate], the pIC50 was 8.50.

For `Cc1cc(NC(=O)c2cccnc2N2CCC(NC(=O)c3ccc(-c4cccc(F)c4)nc3)CC2)no1` [Example 168, 2-[4-({[6-(3-Fluorophenyl)pyridin-3-yl]carbonyl}amino)piperidin-1-yl]-N-(5-methylisoxazol-3-yl)nicotinamide], the negative logarithm of the IC50 (pIC50) is 8.60.

Turning to `CCc1cnc(CC)c(N2CCC(NC(=O)c3ccc(-c4cccc(F)c4)nc3)CC2)n1` [Example 169, N-[1-(3,6-Diethylpyrazin-2-yl)piperidin-4-yl]-6-(3-fluorophenyl)nicotinamide], the pIC50 was 7.63.

With `NC(=O)c1cc2c(nc1N1CCC(NC(=O)c3ccc(-c4cccc(F)c4)nc3)CC1)CCC2` [Example 170, 2-[4-({[6-(3-Fluorophenyl)pyridin-3-yl]carbonyl}amino)piperidin-1-yl]-6,7-dihydro-5H-cyclopenta[b]pyridine-3-carboxamide], the negative-log IC50 (pIC50) was 8.75.

Consider `O=C(NC1CCN(c2ncc3cccnc3n2)CC1)c1ccc(-c2cccc(F)c2)nc1` [Example 171, 6-(3-Fluorophenyl)-N-(1-pyrido[2,3-d]pyrimidin-2-ylpiperidin-4-yl)nicotinamide], for which the negative logarithm of the IC50 (pIC50) is 8.85.

For the compound `O=C(NC1CCN(c2nccc(-c3cccc(F)c3)n2)CC1)c1ccc(-c2cccc(F)c2)nc1` [Example 172, 6-(3-Fluorophenyl)-N-{1-[4-(3-fluorophenyl)pyrimidin-2-yl]piperidin-4-yl}nicotinamide], the negative logarithm of the IC50 (pIC50) is 7.46.

As to `COc1cc2ncc(N3CCC(NC(=O)c4ccc(-c5cccc(F)c5)nc4)CC3)nc2cc1OC` [Example 173, N-[1-(6,7-Dimethoxyquinoxalin-2-yl)piperidin-4-yl]-6-(3-fluorophenyl)nicotinamide], the negative-log IC50 (pIC50) is 7.80.

In the case of `O=C(NC1CCN(c2ncc3ccc(F)cc3n2)CC1)c1ccc(-c2cccc(F)c2)nc1` [Example 174, 6-(3-Fluorophenyl)-N-[1-(7-fluoroquinazolin-2-yl)piperidin-4-yl]nicotinamide], the negative-log IC50 (pIC50) was 8.05.

On to `Cc1nc(N2CCC(NC(=O)c3ccc(-c4cccc(F)c4)nc3)CC2)ccc1C#N` [Example 175, N-[1-(5-Cyano-6-methylpyridin-2-yl)piperidin-4-yl]-6-(3-fluorophenyl)nicotinamide], for which the pIC50 was 8.27.

On to `Cc1nc(N)c2nc(N3CCC(NC(=O)c4ccc(-c5cccc(F)c5)nc4)CC3)cnc2n1` [Example 176, N-[1-(4-Amino-2-methylpteridin-6-yl)piperidin-4-yl]-6-(3-fluorophenyl)nicotinamide], for which the pIC50 is 9.12.

In the case of `COc1cccc(-c2ccnc(N3CCC(NC(=O)c4ccc(-c5cccc(F)c5)nc4)CC3)n2)c1` [Example 177, 6-(3-Fluorophenyl)-N-{1-[4-(3-methoxyphenyl)pyrimidin-2-yl]piperidin-4-yl}nicotinamide], the pIC50 was 7.16.

As for `COc1ccc2ncnc(N3CCC(NC(=O)c4ccc(-c5cccc(F)c5)nc4)CC3)c2c1` [Example 178, 6-(3-Fluorophenyl)-N-[1-(6-methoxyquinazolin-4-yl)piperidin-4-yl]nicotinamide], the pIC50 is 9.13.

On to `CCOc1cc(CN2CCC(NC(=O)c3ccc(-c4cccc(F)c4)nc3)CC2)ccc1O` [Example 179, N-(1-(3-Ethoxy-4-hydroxybenzyl)piperidin-4-yl)-6-(3-fluorophenyl)nicotinamide], for which the pIC50 was 8.65.

Take `Cc1cn(CCN2CCC(NC(=O)c3ccc(-c4cccc(F)c4)nc3)CC2)c(=O)[nH]c1=O` [Example 180, 6-(3-Fluorophenyl)-N-{1-[2-(5-methyl-2,4-dioxo-34-dihydropyrimidin-1(2H)-yl)ethyl]piperidin-4-yl}nicotinamide]: the pIC50 was 9.43.

For the compound `O=C(NC1CCN(Cc2cccc(-c3ncccn3)c2)CC1)c1ccc(-c2cccc(F)c2)nc1` [Example 181, 6-(3-Fluorophenyl)-N-[1-(3-pyrimidin-2-ylbenzyl)piperidin-4-yl]nicotinamide], the pIC50 was 8.47.

The values are drawn from patent publication US7902373B2 (Pfizer Inc, priority 2006, dated 2011).
